Consider six compounds from ChEMBL document CHEMBL1153012, “Synthesis and antibacterial activity of novel 5-(4-methyl-1H-1,2,3-triazole) methyl oxazolidinones” (2009).

What all share (format): functional
One test concerns Escherichia coli. Put plainly: Antibacterial activity against Escherichia coli ATCC 25922 by agar dilution method.
In a further test the test system is Streptococcus pneumoniae. Put plainly: Antibacterial activity against Streptococcus pneumoniae by agar dilution method.
The subject of test [1] is Staphylococcus. Briefly: Antibacterial activity against methicillin-sensitive coagulase-negative Staphylococcus by agar dilution method.
Test [2] concerns Staphylococcus aureus. Put plainly: Antibacterial activity against methicillin-susceptible Staphylococcus aureus by agar dilution method. On the technique in general: In agar dilution, organisms are placed on agar that contains the substance at set levels.
The test system of test [3] is Staphylococcus aureus. Briefly: Antibacterial activity against methicillin-resistant Staphylococcus aureus by agar dilution method.
The test system of test [4] is Staphylococcus aureus. Briefly: Antibacterial activity against Staphylococcus aureus ATCC 25923 by agar dilution method.
Test [5] relates to Enterococcus. Briefly: Antibacterial activity against vancomycin-resistant Enterococcus by agar dilution method.
Test [6] concerns Staphylococcus aureus. Put plainly: Antibacterial activity against Staphylococcus aureus ATCC 25923 by agar dilution method in presence of human plasma. The following applies: ATCC 25923, Plasma.
The subject of the next test is Moraxella catarrhalis. Briefly: Antibacterial activity against Moraxella catarrhalis by agar dilution method.
Test [7] concerns Haemophilus influenzae. Put plainly: Antibacterial activity against Haemophilus influenzae isolate 285 by agar dilution method.
For test [8], the system named is Haemophilus influenzae. Briefly: Antibacterial activity against Haemophilus influenzae isolate 283 by agar dilution method.
Test [9] deals with Enterococcus. Put plainly: Antibacterial activity against vancomycin-sensitive Enterococcus by agar dilution method.
The subject of test [10] is Haemophilus influenzae. Put plainly: Antibacterial activity against Haemophilus influenzae isolate 280 by agar dilution method.
The subject of test [11] is Staphylococcus. Briefly: Antibacterial activity against methicillin resistant coagulase-negative Staphylococcus by agar dilution method.
The test system of test [12] is Haemophilus influenzae. Put plainly: Antibacterial activity against Haemophilus influenzae isolate 282 by agar dilution method.
The subject of test [13] is Haemophilus influenzae. Briefly: Antibacterial activity against Haemophilus influenzae ATCC 49247 by agar dilution method.

≈ marks a conversion by molar mass, not a printed value.

For the compound `Cc1cn(C[C@H]2CN(c3ccc(N4CCN(C(=O)CC5CC6CCC5C6)CC4)c(F)c3)C(=O)O2)nn1` (stereo partly specified), the MIC is over 64 µg/mL in the test with Escherichia coli; 16 µg/mL (≈ 32.2 µM) against Streptococcus pneumoniae; 2 µg/mL (≈ 4.03 µM) against Staphylococcus [1]; 2 µg/mL (≈ 4.03 µM) in the test with Staphylococcus aureus [2]; 4 µg/mL (≈ 8.05 µM) in the test with Staphylococcus aureus [3]; 4 µg/mL (≈ 8.05 µM) against Staphylococcus aureus [4]. Further, the MIC against Enterococcus [5] was 2 µg/mL (≈ 4.03 µM); in the test on Staphylococcus aureus [6], over 64 µg/mL; in the test on Moraxella catarrhalis, 64 µg/mL (≈ 129 µM); in the test on Haemophilus influenzae [7], over 64 µg/mL; in the test on Haemophilus influenzae [8], over 64 µg/mL; against Enterococcus [9], 2 µg/mL (≈ 4.03 µM). The MIC in the test on Haemophilus influenzae [10] is over 64 µg/mL; against Staphylococcus [11] it was 2 µg/mL (≈ 4.03 µM); against Haemophilus influenzae [12], over 64 µg/mL; against Haemophilus influenzae [13], over 64 µg/mL.
Take `Cc1cn(C[C@H]2CN(c3ccc(N4CCOCC4)c(F)c3)C(=O)O2)nn1`: the MIC against Escherichia coli is over 64 µg/mL; in the test with Streptococcus pneumoniae it was 1 µg/mL (≈ 2.77 µM); in the test with Staphylococcus [1], 1 µg/mL (≈ 2.77 µM); in the test on Staphylococcus aureus [2], 1 µg/mL (≈ 2.77 µM); against Staphylococcus aureus [3] it was 0.5 µg/mL (≈ 1.38 µM); in the test with Staphylococcus aureus [4], 2 µg/mL (≈ 5.53 µM). In addition, the MIC against Enterococcus [5] was found to be 1 µg/mL (≈ 2.77 µM); in the test with Staphylococcus aureus [6], 4 µg/mL; in the test on Moraxella catarrhalis, 8 µg/mL (≈ 22.1 µM); against Haemophilus influenzae [7], 64 µg/mL (≈ 177 µM); in the test with Haemophilus influenzae [8], 64 µg/mL (≈ 177 µM); against Enterococcus [9] it was 1 µg/mL (≈ 2.77 µM). In addition, the MIC in the test on Haemophilus influenzae [10] was determined as 64 µg/mL (≈ 177 µM); with Staphylococcus [11] it was 1 µg/mL (≈ 2.77 µM); against Haemophilus influenzae [12], 64 µg/mL (≈ 177 µM); against Haemophilus influenzae [13], 64 µg/mL (≈ 177 µM).
Turning to `Cc1cn(C[C@H]2CN(c3ccc(N4CCN(C(=O)C5CCCC5)CC4)c(F)c3)C(=O)O2)nn1`, the MIC against Escherichia coli was over 64 µg/mL; with Streptococcus pneumoniae, 4 µg/mL (≈ 8.76 µM); against Staphylococcus [1], 2 µg/mL (≈ 4.38 µM); in the test on Staphylococcus aureus [2], 2 µg/mL (≈ 4.38 µM); against Staphylococcus aureus [3], 2 µg/mL (≈ 4.38 µM); with Staphylococcus aureus [4], 4 µg/mL (≈ 8.76 µM). Moreover, the MIC is 2 µg/mL (≈ 4.38 µM) in the test with Enterococcus [5]; 32 µg/mL in the test with Staphylococcus aureus [6]; 32 µg/mL (≈ 70.1 µM) against Moraxella catarrhalis; 32 µg/mL (≈ 70.1 µM) against Haemophilus influenzae [7]; 32 µg/mL (≈ 70.1 µM) against Haemophilus influenzae [8]; 2 µg/mL (≈ 4.38 µM) in the test with Enterococcus [9]. Besides, the MIC was 32 µg/mL (≈ 70.1 µM) in the test on Haemophilus influenzae [10], 2 µg/mL (≈ 4.38 µM) in the test with Staphylococcus [11], 32 µg/mL (≈ 70.1 µM) in the test on Haemophilus influenzae [12] and 32 µg/mL (≈ 70.1 µM) with Haemophilus influenzae [13].
As for `Cc1cn(C[C@H]2CN(c3ccc(N4CCN(C(=O)c5ccccc5)CC4)c(F)c3)C(=O)O2)nn1`, the MIC is over 64 µg/mL in the test on Escherichia coli; 4 µg/mL (≈ 8.61 µM) against Streptococcus pneumoniae; 1 µg/mL (≈ 2.15 µM) against Staphylococcus [1]; 1 µg/mL (≈ 2.15 µM) against Staphylococcus aureus [2]; 1 µg/mL (≈ 2.15 µM) in the test with Staphylococcus aureus [3]; 2 µg/mL (≈ 4.31 µM) in the test with Staphylococcus aureus [4]. The MIC is 1 µg/mL (≈ 2.15 µM) in the test on Enterococcus [5]; 32 µg/mL with Staphylococcus aureus [6]; 32 µg/mL (≈ 68.9 µM) in the test with Moraxella catarrhalis; over 64 µg/mL in the test on Haemophilus influenzae [7]; over 64 µg/mL with Haemophilus influenzae [8]; 1 µg/mL (≈ 2.15 µM) in the test on Enterococcus [9]. Also, the MIC against Haemophilus influenzae [10] is over 64 µg/mL; with Staphylococcus [11], 1 µg/mL (≈ 2.15 µM); with Haemophilus influenzae [12] it was over 64 µg/mL; in the test with Haemophilus influenzae [13], over 64 µg/mL.
For the compound `Cc1cn(C[C@H]2CN(c3ccc(N4CCN(C(=O)/C=C/c5ccccc5)CC4)c(F)c3)C(=O)O2)nn1`, the MIC was over 64 µg/mL with Escherichia coli; 8 µg/mL (≈ 16.3 µM) against Streptococcus pneumoniae; 8 µg/mL (≈ 16.3 µM) in the test with Staphylococcus [1]; 16 µg/mL (≈ 32.6 µM) with Staphylococcus aureus [2]; 8 µg/mL (≈ 16.3 µM) in the test on Staphylococcus aureus [3]; 16 µg/mL (≈ 32.6 µM) against Staphylococcus aureus [4]. The MIC is 8 µg/mL (≈ 16.3 µM) against Enterococcus [5]; over 64 µg/mL in the test with Staphylococcus aureus [6]; 64 µg/mL (≈ 130 µM) in the test on Moraxella catarrhalis; over 64 µg/mL with Haemophilus influenzae [7]; over 64 µg/mL against Haemophilus influenzae [8]; 8 µg/mL (≈ 16.3 µM) in the test on Enterococcus [9]. In addition, the MIC was over 64 µg/mL against Haemophilus influenzae [10], 8 µg/mL (≈ 16.3 µM) in the test with Staphylococcus [11], over 64 µg/mL in the test on Haemophilus influenzae [12] and over 64 µg/mL in the test with Haemophilus influenzae [13].
As to `Cc1cn(C[C@H]2CN(c3ccc(N4CCNCC4)c(F)c3)C(=O)O2)nn1.O=C(O)C(F)(F)F`, the MIC against Escherichia coli is over 64 µg/mL; in the test on Streptococcus pneumoniae, 2 µg/mL; with Staphylococcus [1], 4 µg/mL; in the test with Staphylococcus aureus [2], 4 µg/mL; against Staphylococcus aureus [3] it was 4 µg/mL; against Staphylococcus aureus [4], 4 µg/mL. Further, the MIC came out at 8 µg/mL against Enterococcus [5]; 32 µg/mL with Staphylococcus aureus [6]; 16 µg/mL in the test on Moraxella catarrhalis; 32 µg/mL in the test on Haemophilus influenzae [7]; 32 µg/mL against Haemophilus influenzae [8]; 4 µg/mL against Enterococcus [9]. In addition, the MIC is 32 µg/mL against Haemophilus influenzae [10], 4 µg/mL against Staphylococcus [11], 32 µg/mL in the test on Haemophilus influenzae [12] and 32 µg/mL against Haemophilus influenzae [13].
